Values quoted from earlier work in patent publication US11439593B2, “Composition for treating onychomycosis” (NCP NewCare Products GmbH, priority 2017, dated 2022).
Like-named read-outs stand apart in the source and are kept apart here.

Q: With `c1ccc(-c2ccc(C(c3ccccc3)n3ccnc3)cc2)cc1` (centres unmarked) [bifonazole] as the compound, how does the “stability in acidic environment” value (pH of about 5) read?
A: The value was “stable”.

Q: With `Cc1cc(C2CCCCC2)n(O)c(=O)c1` [ciclopirox] as the compound, how does the “stability in acidic environment” value (pH of about 3) read?
A: The value was “stable”.

Q: With `Clc1ccccc1C(c1ccccc1)(c1ccccc1)n1ccnc1` [clotrimazole] as the compound, how does the “stability in acidic environment” value (pH of about 5) read?
A: The value was “stable”.

Q: For `Clc1ccc(COC(Cn2ccnc2)c2ccc(Cl)cc2Cl)c(Cl)c1` (centres unmarked) [miconazole], which “stability in acidic environment” value (pH of about 3) is on record?
A: Its value is “stable”.

Q: With `CN(C/C=C/C#CC(C)(C)C)Cc1cccc2ccccc12` [terbinafine] as the compound, how does the “stability in acidic environment” value (pH of about 3) read?
A: Its value is “stable”.
